Measurements reported in patent US20250281479A1, “TREATMENT OF CAVERNOUS ANGIOMAS WITH A 4-SUBSTITUTED PIPERIDINE DERIVATIVE” (Neurelis, Inc., priority 2024, published 2025).

Tests used:
[1] = nonclinical exposure to NRL-2017 versus NRL-1049 in rats; type: in vivo
Method: (§1) Exposure to NRL-2017 was similar or greater (up to 5-fold) than that to NRL-1049 in rats when dosed once a day (QD). In monkeys, exposure to NRL-2017 was also greater (up to 33-fold) than that to NRL-1049. When rats were dosed twice a day (BID) for 14 days, there was a decrease in formation of NRL-2017 with exposure to NRL-2017 lower than that of NRL-1049 (ratio as low as 0.06). […] NRL-1049 bound to human serum albumin and human alpha1-acid glycoprotein. […] There was also inhibition of P-glycoprotein (P-gp) (only CACO-2 cells), organic anion transporting polypeptides (OATP) OATP1B1, OATP1B3 and OAT3 (IC50, >100 μM), but no effect on P-gp (MDCK2 cells), breast cancer resistance protein (BCRP), bile salt export pump (BSEP), or MATE2-K. NRL-1049 is a substrate for P-gp, not BCRP. […] This conclusion will be revisited when human pharmacokinetic (PK) data becomes available.

ROCK 2 = ROCK 2 (Homo sapiens, UniProt O75116); assay: ROCK 2 inhibition by metabolites; type: biochemical
[2] = nonclinical pharmacokinetics after a single oral dose; type: in vivo, mice, rats, and monkeys
Method: as §1

[3] = first-in-human single ascending dose and food-effect study, plasma pharmacokinetics; type: in vivo; conditions: for Tmax: po; for Thalf: mean
Text: This was a first-in-human, single center, randomized, double-blind, placebo-controlled, single ascending dose (SAD) study, including a food-effect assessment, in healthy male and female subjects. Up to 44 subjects were included in the study.
The study consisted of 4 sequential cohorts of 8 subjects each (6 active and 2 placebo), randomly assigned to receive a single oral dose of NRL-1049 or matching-placebo under fasting state on Day 1 (See Table 2). In each cohort, a sentinel group of 2 subjects (1 active and 1 placebo) were dosed at least 24 hours prior to enrolling the remaining subjects of the cohort, contingent on the safety profile observed during sentinel dosing, as defined by medical judgment.
Subjects were admitted to the clinical research unit (CRU) on Day −1. On Day 1, following an overnight fast, subjects received a single oral dose of their assigned study treatment. Safety, PK, and exploratory biomarker assessments were performed prior to dosing and at assigned time points during study confinement. Subjects were permitted to leave the CRU following the completion of the 48-hour PK postdose sampling and safety assessments. A safety follow-up phone call was performed on Day 8 (±1 day).
Furthermore, a food-effect assessment was integrated into Cohort 3, in which a single oral 150 mg dose of NRL-1049 or placebo was administered to 12 subjects (10 active and 2 placebo) under fed state in Period 2 (refer to schedule of food-effect Cohort 3 in Table 3). After completion of Period 1 and a washout period of at least 14 days, Cohort 3 subjects repeated the screening procedures to ensure they still met the inclusion and exclusion criteria prior to readmission to the CRU for Period 2. Subjects dosed in Period 1 and who returned for Period 2 (a maximum of 6 active and 2 placebo) were administered the same single oral dose in Period 2 under fed state. In addition, at least 4 new subjects were enrolled in Period 2 only, in order to dose a total of 12 subjects (10 active and 2 placebo), in a 1:1 ratio of male to female. If a subject dosed in Period 1 was unable to return for Period 2, a new subject was enrolled to ensure dosing a total of 12 subjects in Period 2. Newly enrolled subjects only received the study drug in the fed state, and as such were not required to undergo Period 1 activities. There was no sentinel approach in Period 2.
Study drugs (NRL-1049 or placebo) were administered in the morning. The date and time of each dose was recorded. For each subject, all scheduled postdose activities and assessments were performed relative to the time of study drug administration. An oral dose of the assigned formulation was administered to subjects with approximately 240 mL of water at ambient temperature. The capsule(s) were swallowed whole and not chewed or broken. Food and fluid intake other than water were controlled for each confinement period and all subjects. In Cohorts 1, 2, 3 (Period 1), and 4, water was permitted as needed except from 1 hour predose until 1 hour after dosing. In Period 2 of Cohort 3, water was permitted as needed throughout the confinement period. For cohorts under fasting state, subjects were required to fast (abstain from food) for at least 10 hours prior to dosing and for at least 4 hours following dosing. In Period 2 of the food-effect cohort only, following an overnight fast of at least 10 hours, subjects received a standardized high-fat, high-calorie meal 30 minutes prior to study drug administration. An example meal would consist of 2 eggs fried in butter, 2 strips of bacon, 2 slices of toast with butter, 4 ounces of hash brown potatoes, and 8 ounces of whole milk. […] Subjects had to eat the total content of this meal in 30 minutes or less. For all cohorts, a standardized lunch was served at least 4 hours after dosing. A supper, light snack, and other meals were served at appropriate times thereafter, but not until after 9 hours postdose. […]

[4] = nonclinical exposure to NRL-2017 versus NRL-1049 in monkeys; type: in vivo
Method: as §1

[5] = tissue distribution and excretion; type: in vivo
Method: as §1

[6] = 150 mg NRL-1049, fed compared to fasting state
[7] = 25 to 250 mg NRL-1049, fasting conditions

Sequence of ROCK 2 (O75116 whole entry, species assumed): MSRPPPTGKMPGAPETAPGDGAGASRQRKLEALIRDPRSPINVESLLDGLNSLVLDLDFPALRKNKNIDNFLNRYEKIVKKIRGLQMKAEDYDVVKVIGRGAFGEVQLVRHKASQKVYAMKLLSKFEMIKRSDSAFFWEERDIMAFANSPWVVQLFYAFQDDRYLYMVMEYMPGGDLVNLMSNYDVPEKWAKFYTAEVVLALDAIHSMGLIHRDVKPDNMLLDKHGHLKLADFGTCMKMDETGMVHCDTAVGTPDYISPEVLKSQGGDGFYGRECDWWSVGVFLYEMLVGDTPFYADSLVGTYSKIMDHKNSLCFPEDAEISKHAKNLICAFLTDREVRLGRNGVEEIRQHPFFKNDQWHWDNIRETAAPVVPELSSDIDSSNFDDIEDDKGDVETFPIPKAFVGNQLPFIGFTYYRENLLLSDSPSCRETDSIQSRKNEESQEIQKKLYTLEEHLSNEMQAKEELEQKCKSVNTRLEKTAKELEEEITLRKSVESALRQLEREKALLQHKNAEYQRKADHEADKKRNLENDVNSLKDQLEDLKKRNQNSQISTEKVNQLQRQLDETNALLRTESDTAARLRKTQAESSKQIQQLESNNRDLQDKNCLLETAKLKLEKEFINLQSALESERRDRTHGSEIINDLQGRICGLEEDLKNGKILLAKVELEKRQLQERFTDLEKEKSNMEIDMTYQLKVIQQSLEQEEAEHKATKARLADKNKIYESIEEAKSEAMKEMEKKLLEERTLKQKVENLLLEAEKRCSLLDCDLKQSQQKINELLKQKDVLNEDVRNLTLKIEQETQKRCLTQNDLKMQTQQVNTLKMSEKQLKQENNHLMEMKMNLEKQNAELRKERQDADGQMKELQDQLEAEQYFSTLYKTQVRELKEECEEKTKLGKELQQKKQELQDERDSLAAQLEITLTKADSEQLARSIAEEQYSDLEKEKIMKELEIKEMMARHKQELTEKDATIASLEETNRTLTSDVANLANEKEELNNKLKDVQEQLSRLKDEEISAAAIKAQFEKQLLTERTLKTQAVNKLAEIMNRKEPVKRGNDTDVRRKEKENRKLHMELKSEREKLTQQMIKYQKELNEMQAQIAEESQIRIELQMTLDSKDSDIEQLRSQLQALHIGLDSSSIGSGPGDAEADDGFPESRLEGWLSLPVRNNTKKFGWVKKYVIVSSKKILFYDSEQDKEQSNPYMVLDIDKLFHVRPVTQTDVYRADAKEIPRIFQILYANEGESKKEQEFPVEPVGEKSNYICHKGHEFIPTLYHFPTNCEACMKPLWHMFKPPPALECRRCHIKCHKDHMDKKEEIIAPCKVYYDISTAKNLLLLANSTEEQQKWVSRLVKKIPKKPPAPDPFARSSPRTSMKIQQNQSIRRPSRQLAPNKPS

Question: Which results are given for `C[C@@H](N)C1CCN(S(=O)(=O)c2cccc3c(O)nccc23)CC1` [NRL-2017, 1-hydroxy NRL-1049]?
Answer: exposure to NRL-2017 relative to NRL-1049 ([1]; rats dosed once a day (QD), similar or greater): up to 5 fold; exposure ratio NRL-2017 to NRL-1049 ([1]; rats dosed twice a day (BID) for 14 days): ≥ 0.06; ROCK 2 inhibition (ROCK 2): potent ROCK 2 inhibitor; exposure versus dose ([2]; in vivo): greater than dose-proportional; half-life ([2]; mouse, rat, monkey, plasma, single oral dose of NRL-1049, range over mice, rats, and monkeys, read-out: elimination phase half-life (t½)): 0.58 to 5.7 h; Tmax ([2]; mouse, rat, monkey, plasma, single oral dose of NRL-1049, range over mice, rats, and monkeys, read-out: time to maximum plasma concentration (Tmax)): 0.5 to 4 h; food effect on mean AUC0-T and AUCinf [3, 6]: remained consistent; food effect on mean Cmax [3, 6]: decreased; food effect on mean elimination half-life [3, 6]: remained consistent; manner of increase of AUC0-T with dose [3, 7]: greater than dose proportional; manner of increase of AUC0-Tmax with dose [3, 7]: dose proportional; manner of increase of AUCinf with dose [3, 7]: greater than dose proportional; manner of increase of Cmax with dose [3, 7]: greater than dose proportional; time up to which mean concentrations were quantifiable ([3]; all dose levels of 25 to 250 mg NRL-1049 fasting and 150 mg fed): up to 48 hours; AUC(0-t) ([3]; both sexes, human, plasma, oral, range over dose range 25 to 250 mg NRL-1049, fasting state, read-out: mean AUC0-T): 478 to 6690 ng·h/mL; AUC ([3]; both sexes, human, plasma, oral, range over dose range 25 to 250 mg NRL-1049, fasting state, read-out: mean AUC0-Tmax): 35.6 to 457 ng·h/mL; AUC(0-inf) ([3]; both sexes, human, plasma, oral, range over dose range 25 to 250 mg NRL-1049, fasting state, read-out: mean AUCinf): 546 to 7040 ng·h/mL; Cmax ([3]; both sexes, human, plasma, oral, range over dose range 25 to 250 mg NRL-1049, fasting state, read-out: mean Cmax): 54.2 to 1520 ng/mL; half-life ([3]; both sexes, human, plasma, oral, range over the dose groups 25 to 250 mg NRL-1049, fasting state, read-out: mean elimination half-life): 12.3 to 17.3 h; Tmax ([3]; both sexes, human, plasma, 150 mg, plasma metabolite NRL-2017, median, 150 mg NRL-1049 single oral, Fasted, Cohort 3, N = 6, read-out: Tmax): 1.13 h; Tmax ([3]; both sexes, human, plasma, 150 mg, plasma metabolite NRL-2017, median, 150 mg NRL-1049 single oral, Fed, Cohort 3, N = 10, read-out: Tmax): 1.75 h; Tmax ([3]; both sexes, human, plasma, range over single oral doses of 25 to 250 mg NRL-1049, fasting state, read-out: median time to maximum observed plasma concentration (Tmax)): 0.88 to 1.63 h; Thalf ([3]; plasma metabolite NRL-2017, 150 mg NRL-1049 single oral, Fasted, Cohort 3, N = 6): 12.28 h; Thalf ([3]; plasma metabolite NRL-2017, 150 mg NRL-1049 single oral, Fed, Cohort 3, N = 10): 12.37 h; exposure to NRL-2017 relative to NRL-1049 [4]: up to 33 fold; tissue distribution ([5]; brain, aorta, inferior vena cava): distributed to brain and vascular tissue; excretion ([5]; in vivo): excreted in urine
